Usually EC50 stands for the concentration that produces a half-maximal response.

Chain of human activated kallikrein enzyme (P03952 391-638 limits assumed): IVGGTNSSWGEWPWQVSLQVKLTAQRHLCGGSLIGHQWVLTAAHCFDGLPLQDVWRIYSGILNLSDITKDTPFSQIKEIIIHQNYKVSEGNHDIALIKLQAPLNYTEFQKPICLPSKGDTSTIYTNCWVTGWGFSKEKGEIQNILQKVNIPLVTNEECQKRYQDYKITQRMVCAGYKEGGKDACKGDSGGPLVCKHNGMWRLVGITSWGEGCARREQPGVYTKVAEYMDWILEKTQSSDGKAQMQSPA
Chain of human activated kallikrein enzyme (P03952 20-390 partner limits assumed): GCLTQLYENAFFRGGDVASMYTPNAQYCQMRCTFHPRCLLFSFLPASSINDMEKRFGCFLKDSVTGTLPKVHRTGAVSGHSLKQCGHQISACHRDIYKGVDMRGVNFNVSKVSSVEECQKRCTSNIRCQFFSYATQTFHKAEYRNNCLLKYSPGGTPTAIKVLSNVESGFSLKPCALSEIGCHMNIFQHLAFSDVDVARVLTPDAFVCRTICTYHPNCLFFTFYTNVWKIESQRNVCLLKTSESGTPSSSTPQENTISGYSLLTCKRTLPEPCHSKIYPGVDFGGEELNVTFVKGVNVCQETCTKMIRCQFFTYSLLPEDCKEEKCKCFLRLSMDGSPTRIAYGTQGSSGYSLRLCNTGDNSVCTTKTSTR

This assay concerns the target human activated kallikrein enzyme (Homo sapiens, UniProt P03952). In words: Plasma kallikrein inhibition, fluorogenic PFR-AMC substrate, 500 pM activated kallikrein format. Format: biochemical. The settings on record: 500 pM activated kallikrein, 300 uM PFR-AMC, 30 min preincubation, 10 min reaction; read-out: Primary Dose Response Assay: Average EC50. An outline of the steps:
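Enzyme at 500 pM preincubated 30 min RT with inhibitors in 20 mM Tris pH 7.5, 1 mM EDTA, 150 mM NaCl, 0.1% PEG-400, 0.1% Triton X-100. Reaction started with 300 uM PFR-AMC, run 10 min RT; fluorescence read at 460 nm emission, 380 nm excitation. EC50 reported in ranges.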
As to `O=C(Nc1nccc2nn(Cc3cn4cc(C5CC5)ccc4n3)cc12)[C@H]1C[C@@H]1c1cc(Cl)ccc1-n1cnnn1` (racemic) [Example 586, rac-(1S*,2S*)-2-(5-chloro-2-(1H-tetrazol-1-yl)phenyl)-N-(2-((6-cyclopropylimidazo[1,2-a]pyridin-2-yl)methyl)-2H-pyrazolo[4,3-c]pyridin-4-yl)cyclopropane-1-carboxamide], the EC50 was below 1 nM. On to `O=C(Nc1cc(Cc2cn3cc(C4CC4)ccc3n2)ncn1)[C@H]1C[C@@H]1c1cccc(Cl)c1` (racemic) [Example 587, rac-(1S*,2S*)-2-(3-chlorophenyl)-N-(6-((6-cyclopropylimidazo[1,2-a]pyridin-2-yl)methyl)pyrimidin-4-yl)cyclopropane-1-carboxamide], for which the concentration for a half-maximal effect (EC50) is 100 to 1000 nM. Turning to `O=C(NCc1cn(Cc2cn3cc(C4CC4)ccc3n2)nn1)[C@H]1C[C@@H]1c1cccc(Cl)c1` (racemic) [Example 588, rac-(1S*,2S*)-2-(3-chlorophenyl)-N-((1-((6-cyclopropylimidazo[1,2-a]pyridin-2-yl)methyl)-1H-1,2,3-triazol-4-yl)methyl)cyclopropane-1-carboxamide], the EC50 lay in the range of 10 to 100 nM.

Turning to `O=C(Nc1nccc2cn(Cc3cn4cc(C5CC5)ccc4n3)nc12)[C@H]1C[C@@H]1c1cccc(Cl)c1` (racemic) [Example 592, rac-(1S*,2S*)-2-(3-chlorophenyl)-N-(2-((6-cyclopropylimidazo[1,2-a]pyridin-2-yl)methyl)-2H-pyrazolo[3,4-c]pyridin-7-yl)cyclopropane-1-carboxamide], the EC50 fell in the range of 1 to 10 nM. With `O=C(Nc1cn(Cc2cn3cc(C4CC4)ccc3n2)nn1)[C@H]1C[C@@H]1c1cccc(Cl)c1` (racemic) [Example 593, rac-(1S*,2S*)-2-(3-chlorophenyl)-N-(1-((6-cyclopropylimidazo[1,2-a]pyridin-2-yl)methyl)-1H-1,2,3-triazol-4-yl)cyclopropane-1-carboxamide], the EC50 is above 6000 nM.

Take `O=C(Nc1cc2c(cn1)ncn2Cc1cn2cc(C3CC3)ccc2n1)[C@H]1C[C@@H]1c1cccc(Cl)c1` (racemic) [Example 594, rac-(1S*,2S*)-2-(3-chlorophenyl)-N-(1-((6-cyclopropylimidazo[1,2-a]pyridin-2-yl)methyl)-1H-imidazo[4,5-c]pyridin-6-yl)cyclopropane-1-carboxamide]: the concentration for a half-maximal effect (EC50) was in the range of 10 to 100 nM. As for `Cc1ccnc([C@H]2C[C@@H]2C(=O)Nc2cc(NCc3cn4cc(C5CC5)ccc4n3)ccc2S(C)(=O)=O)n1` (racemic) [Example 619, rac-(1S*,2S*)—N-(5-(((6-cyclopropylimidazo[1,2-a]pyridin-2-yl)methyl)amino)-2-(methylsulfonyl)phenyl)-2-(4-methylpyrimidin-2-yl)cyclopropane-1-carboxamide], the EC50 was in the range of 1000 to 6000 nM.

On to `Cc1ccnc([C@H]2C[C@@H]2C(=O)Nc2cc(NCc3cn4cc(C5CC5)cc(N5CC(=O)N(C)C5=O)c4n3)n3ncnc3n2)n1` (racemic) [Example 624, rac-(1S*,2S*)—N-(7-(((6-cyclopropyl-8-(3-methyl-2,4-dioxoimidazolidin-1-yl)imidazo[1,2-a]pyridin-2-yl)methyl)amino)-[1,2,4]triazolo[1,5-a]pyrimidin-5-yl)-2-(4-methylpyrimidin-2-yl)cyclopropane-1-carboxamide], for which the EC50 was below 1 nM. As to `Cc1ccnc([C@H]2C[C@@H]2C(=O)Nc2ncc3oc(=O)n(Cc4cn5cc(C6CC6)cc(N6CC(=O)N(C)C6=O)c5n4)c3n2)n1` (racemic) [Example 626, rac-(1S*,2S*)—N-(3-((6-cyclopropyl-8-(3-methyl-2,4-dioxoimidazolidin-1-yl)imidazo[1,2-a]pyridin-2-yl)methyl)-2-oxo-2,3-dihydrooxazolo[4,5-d]pyrimidin-5-yl)-2-(4-methylpyrimidin-2-yl)cyclopropane-1-carboxamide], the EC50 is below 1 nM. On to `Cc1ccnc([C@H]2C[C@@H]2C(=O)Nc2ncnc3nn(Cc4cn5cc(C6CC6)cc(N6CC(=O)N(C)C6=O)c5n4)cc23)n1` (racemic) [Example 632, rac-(1S*,2S*)—N-(2-((6-cyclopropyl-8-(3-methyl-2,4-dioxoimidazolidin-1-yl)imidazo[1,2-a]pyridin-2-yl)methyl)-2H-pyrazolo[3,4-d]pyrimidin-4-yl)-2-(4-methylpyrimidin-2-yl)cyclo propane-1-carboxamide], for which the EC50 is below 1 nM. For the molecule `O=C(Nc1cc(NCc2cn3cc(C4CC4)cc(N4CCN(CC(F)(F)F)CC4)c3n2)ccn1)[C@H]1C[C@@H]1c1cccc(Cl)c1` (racemic) [Example I-20], the concentration for a half-maximal effect (EC50) lay in the range of 1 to 10 nM. `CN1C(=O)CN(c2cc(C3CC3)cn3cc(CNc4cc(NC(=O)[C@H]5C[C@@H]5c5nccc(C(F)(F)F)n5)ncn4)nc23)C1=O` (racemic) [Example I-165, rac-(1S*,2S*)-N-(6-(((6-cyclopropyl-8-(3-methyl-2,4-dioxoimidazolidin-1-yl)imidazo[1,2-a]pyridin-2-yl)methyl)amino)pyrimidin-4-yl)-2-(4-(trifluoromethyl)pyrimidin-2-yl)cyclopropane-1-carboxamide]: the EC50 was in the range of 1 to 10 nM. Regarding `O=C(Nc1cc(NCc2cn3cc(C4CC4)ccc3n2)ncn1)[C@H]1C[C@@H]1c1cc(Cl)ncn1` (racemic) [Example I-176, rac-(1S*,2S*)-2-(6-chloropyrimidin-4-yl)-N-(6-(((6-cyclopropylimidazo[1,2-a]pyridin-2-yl)methyl)amino)pyrimidin-4-yl)cyclopropane-1-carboxamide], the EC50 lay in the range of 100 to 1000 nM.

Take `O=C(Nc1cc(NCc2cn3cc(C4CC4)ccc3n2)ncn1)[C@H]1C[C@@H]1c1nccc(Cl)n1` (racemic) [Example I-177, rac-(1S*,2S*)-2-(4-chloropyrimidin-2-yl)-N-(6-(((6-cyclopropylimidazo[1,2-a]pyridin-2-yl)methyl)amino)pyrimidin-4-yl)cyclopropane-1-carboxamide]: the EC50 is below 1 nM.

As for `O=C(Nc1cc(NCc2cn3cc(C4CC4)ccc3n2)ncn1)[C@H]1C[C@@H]1c1cc(Cl)cnn1` (racemic) [Example I-178, rac-(1S*,2S*)-2-(5-chloropyridazin-3-yl)-N-(6-(((6-cyclopropylimidazo[1,2-a]pyridin-2-yl)methyl)amino)pyrimidin-4-yl)cyclopropane-1-carboxamide], the EC50 is 100 to 1000 nM. Take `N#Cc1cc(Cl)sc1[C@H]1C[C@@H]1C(=O)Nc1cc(NCc2cn3cc(C4CC4)ccc3n2)ncn1` (racemic) [Example I-179, rac-(1S*,2S*)-2-(5-chloro-3-cyanothiophen-2-yl)-N-(6-(((6-cyclopropylimidazo[1,2-a]pyridin-2-yl)methyl)amino)pyrimidin-4-yl)cyclopropane-1-carboxamide]: the concentration for a half-maximal effect (EC50) was 100 to 1000 nM.

Regarding `O=C(Nc1cc(NCc2cn3cc(C4CC4)ccc3n2)ncn1)[C@H]1[C@H](CO)[C@@H]1c1cccc(Cl)c1` (racemic) [Example I-180, rac-(1R*,2S*,3R*)-2-(3-chlorophenyl)-N-(6-(((6-cyclopropylimidazo[1,2-a]pyridin-2-yl)methyl)amino)pyrimidin-4-yl)-3-(hydroxymethyl)cyclopropane-1-carboxamide], the 50% effective concentration (EC50) fell in the range of 10 to 100 nM. The figure for `COc1ccc(=O)n([C@H]2C[C@@H]2C(=O)Nc2cc(NCc3cn4cc(C5CC5)ccc4n3)ncn2)c1` (racemic) [Example I-181, rac-(1S*,2S*)-N-(6-(((6-cyclopropylimidazo[1,2-a]pyridin-2-yl)methyl)amino)pyrimidin-4-yl)-2-(5-methoxy-2-oxopyridin-1(2H)-yl)cyclopropane-1-carboxamide] is above 6000 nM; for `COc1cc([C@H]2C[C@@H]2C(=O)Nc2cc(NCc3cn4cc(C5CC5)ccc4n3)ncn2)cc(NC(=O)OC(C)(C)C)n1` (racemic) [Example I-182, rac-tert-butyl (4-((1S*,2S*)-2-((6-(((6-cyclopropylimidazo[1,2-a]pyridin-2-yl)methyl)amino)pyrimidin-4-yl)carbamoyl)cyclopropyl)-6-methoxypyridin-2-yl)carbamate] it is above 6000 nM; for `O=C(Nc1cc(NCc2cn3cc(C4CC4)ccc3n2)ncn1)[C@@H]1C[C@]12CCc1ccc(Cl)cc12` (racemic) [Example I-183, rac-(1R*,2R*)-6′-chloro-N-(6-(((6-cyclopropylimidazo[1,2-a]pyridin-2-yl)methyl)amino)pyrimidin-4-yl)-2′,3′-dihydrospiro[cyclopropane-1,1′-indene]-2-carboxamide] it is 10 to 100 nM.

On to `O=C(Nc1cc(NCc2cn3cc(C4CC4)ccc3n2)ncn1)[C@@]1(F)C[C@@H]1c1cccc(Cl)c1` (racemic) [Example I-184, rac-(1S*,2S*)-2-(3-chlorophenyl)-N-(6-(((6-cyclopropylimidazo[1,2-a]pyridin-2-yl)methyl)amino)pyrimidin-4-yl)-1-fluorocyclopropane-1-carboxamide], for which the EC50 lay within 10 to 100 nM.

For the molecule `O=C(Nc1cc(NCc2cn3cc(C4CC4)ccc3n2)ncn1)[C@H]1C[C@@H]1c1ccc(Cl)s1` (racemic) [Example I-185, rac-(1S*,2S*)-2-(5-chlorothiophen-2-yl)-N-(6-(((6-cyclopropylimidazo[1,2-a]pyridin-2-yl)methyl)amino)pyrimidin-4-yl)cyclopropane-1-carboxamide], the EC50 lay in the range of 100 to 1000 nM. Consider `O=C(Nc1cc(NCc2cn3cc(C4CC4)ccc3n2)ncn1)[C@H]1C[C@@H]1c1cc(Cl)cs1` (racemic) [Example I-186, rac-(1S*,2S*)-2-(4-chlorothiophen-2-yl)-N-(6-(((6-cyclopropylimidazo[1,2-a]pyridin-2-yl)methyl)amino)pyrimidin-4-yl)cyclopropane-1-carboxamide], for which the concentration giving a half-maximal response (EC50) was in the range of 10 to 100 nM. Turning to `COc1cc([C@H]2C[C@@H]2C(=O)Nc2cc(NCc3cn4cc(C5CC5)ccc4n3)ncn2)cc(Cl)n1` (racemic) [Example I-187, rac-(1S*,2S*)-2-(2-chloro-6-methoxypyridin-4-yl)-N-(6-(((6-cyclopropylimidazo[1,2-a]pyridin-2-yl)methyl)amino)pyrimidin-4-yl)cyclopropane-1-carboxamide], the half-maximal effective concentration (EC50) is above 6000 nM.

The values above are taken from US20240228488A1 (TAKEDA PHARMACEUTICAL COMPANY LIMITED, priority 2021, published 2024).
